Measured values as given in ChEMBL document CHEMBL3301546, “MMV Malaria Box yeast growth screening”.

Columns and labels:
Type in all cases: functional
Saccharomyces cerevisiae [1] = assay: (§1) MMV: Growth assays were conducted using the prototrophic S. cerevisiae strain JHY222. Each MMV compound (0.1 mM) was tested in rich media containing dextrose as a carbon source (Yeast Extract, Peptone, Dextrose; YPD). The growth rate in the presence of each MMV compound was calculated as follows: (i) the first 10 OD readings were averaged and subtracted from all OD readings of the corresponding curve to set the baseline of the growth curve to zero, and (ii) the area under the curve (AUC) was then calculated as the sum of all OD readings. […] A relative growth value was calculated as follows: AUC(DRUG) - AUC(DMSO)/AUC(DMSO); where AUC(DMSO) represents growth measured in a DMSO control well that was on the same microtiter plate of the drug-treated culture.
Saccharomyces cerevisiae [2] = assay: as §1, with “minimal” for “rich”, “ethanol and glycerol” for “dextrose”, “as” for “as a”, “sources” for “source”, “Nitrogen Base, Ethanol, Glycerol; YNBEG).” for “Extract, Peptone, Dextrose; YPD).”
Saccharomyces cerevisiae [3] = assay: as §1, with “minimal” for “rich”, “Nitrogen Base,” for “Extract, Peptone,”, “YNBD).” for “YPD).”

Row | Compound | Relative Growth (Saccharomyces cerevisiae [1]) | Relative Growth (Saccharomyces cerevisiae [2]) | Relative Growth (Saccharomyces cerevisiae [3])
1 | Cc1cc(NC(=O)c2cccc(C(F)(F)F)c2)n(-c2nc(-c3ccc4c(c3)OCO4)cs2)n1 | -0.007 | -0.0763 | -0.0865
2 | COc1cccc(O)c1CN1CCC2(CCCN(Cc3ccc(F)cc3)C2)C1 (configuration not stated) | 0.0333 | 0.0078 | 0.0312
3 | CC(=O)NCCc1nc2ccccc2n1Cc1ccc(C(C)C)cc1 | 0.0716 | 0.1937 | -0.0851
4 | COCCNCC(O)Cn1c2ccc(Cl)cc2c2cc(Cl)ccc21 (configuration not stated) | -0.9998 | -0.4771 | -0.1893
5 | COc1ccc(-c2cc3c(nn2)-c2ccccc2C3=O)cc1 | 0.0333 | -0.8829 | -0.3119
6 | CCCCCCc1cc(O)c2c3c(c(=O)oc2c1)CCC(C)C3 (configuration not stated) | -0.0517 | -0.0677 | -0.0738
7 | Cc1cc(NC(=O)C2c3ccccc3C(=O)N(CC(C)C)C2c2cccs2)no1 (configuration not stated) | -0.03 | -0.0882 | -0.0434
8 | CCOC(=O)c1cnc2ccc(Cl)cc2c1NCCCN(C)C | 0.0203 | -0.0264 | 0.0022
9 | CCCOCc1cc(CN2CCN(c3cccc(Cl)c3)CC2)c(O)c2ncccc12 | -0.0331 | -0.1694 | -0.0021
10 | OC(CNC1CCCCC1)Cn1c2ccccc2c2ccccc21 (configuration not stated) | -0.0297 | 0.1093 | 0.0533
11 | C=CC12CCN(CC1)C(C(O)c1ccnc3ccc(OC)cc13)C2.Cl (configuration not stated) | -0.0044 | 0.1178 | 0.1593
12 | N=c1n(CCN2CCCCC2)c2ccccc2n1CC(=O)c1ccc(Cl)c(Cl)c1 | -0.0413 | 0.0494 | 0.1082
13 | Cc1cc(N2CCCC2)nc(Nc2ccc(NC(=O)CCc3ccccc3)cc2)n1 | -0.047 | -0.093 | -0.0661
14 | COc1ccc2c(c1)C1(Nc3ccccc3-c3nc4ccccc4n31)C(=O)N2 (configuration not stated) | -0.0036 | -0.0059 | 0.0329
15 | O=C1c2ccccc2-c2nnc(-c3ccc(Br)cc3)cc21 | -0.0452 | 0.1282 | 0.0312
16 | CC(C)(C)CC(C)(C)NCC(O)COc1ccc(Cl)cc1Cl (configuration not stated) | -0.1373 | -0.1363 | 0.0104
17 | Cn1c(C(=O)c2cccc3ccccc23)nc2ccccc21 | -0.0135 | 0.1204 | 0.0393
18 | O=C(O)C(=O)O.Oc1ccc(Br)cc1CN1CCN(Cc2cccc(F)c2)CC1 | -0.1015 | -0.3839 | -0.047
19 | Nc1ccc(-c2nc3cc(Oc4ccc(Oc5ccc6[nH]c(-c7ccc(N)cc7)nc6c5)cc4)ccc3[nH]2)cc1 | -0.9892 | -0.1502 | 0.0002
